Laboratory results taken from patent US12209079B2 (GENERAL INCORPORATED ASSOCIATION PHARMA VALLEY PROJECT …, priority 2017, dated 2025).

Legend:
Assay type in all cases: in vivo, mouse
[1] = tested on: subcutaneous CT-26CL25 syngeneic graft of large intestine cancer; assay: Drug efficacy test, combined use of compound 1 and oxaliplatin, mice with subcutaneous CT-26CL25 syngeneic graft (Test Example 3); conditions: 40 mg/kg oral twice a day, combined with oxaliplatin 10 mg/kg i.v.; Balb/c mice; FIG. 2
Protocol: Drug Efficacy Test on Combined Use of Compound 1 and Oxaliplatin Using Mice with Subcutaneous CT-26CL25 Syngeneic Graft of Large Intestine Cancer
5×10^5 cells of syngeneic large intestine cancer cell line CT26CL25 were subcutaneously transplanted to each of 8-week-old female Balb/c mice. The mice were divided into 4 groups each involving 8 individuals 10 days later when the average tumor size was 185 mm^3. The oral administration (solvent for oral administration and 40 mg/kg compound 1 were administered twice a day at a 5-hour interval from days 1 to 5 and days 8 to 12) and intravenous administration (5% glucose solution and 10 mg/kg oxaliplatin were administered once a day on days 1 and 8) of each agent were started. Then, the major axis and minor axis of subcutaneous tumor were measured three times a week using calipers, and a mean and standard error of the mean of the ratios of the calculated volumes to the volumes at the administration start day in each group were plotted. The calculation expression was Volume (mm^3)=[Width^2 (mm^2)×Length (mm)]/2. Compound 1 was dissolved in a solvent for oral administration of DMSO:PEG400:PBS=5:20:75.
∘: the solvent for oral administration and the 5% glucose solution, •: the solvent for oral administration and oxaliplatin, Δ: compound 1 and the 5% glucose solution, and ▴: compound 1 and oxaliplatin.

[2] = tested on: subcutaneous CT-26WT syngeneic graft of large intestine cancer; assay: Drug efficacy test, combined use with anti-PD-1 antibody, mice with subcutaneous CT-26WT syngeneic graft (Test Example 2); conditions: 40 mg/kg oral twice a day, combined with anti-PD-1 antibody 200 μg/individual i.p.; Balb/c mice; FIG. 1
Protocol: Drug Efficacy Test on Combined Use of IDO/TDO Inhibitor and Anti-PD-1 Antibody Using Mice with Subcutaneous CT-26WT Syngeneic Graft of Large Intestine Cancer
5×10^5 cells of syngeneic large intestine cancer cell line CT26WT were subcutaneously transplanted to each of 6-week-old female Balb/c mice. The mice were divided into 6 groups each involving 6 to 8 individuals 11 days later when the average tumor size was 212 mm^3. The oral administration (solvent for oral administration and 40 mg/kg each of epacadostat and compound 1 were administered twice a day at a 5-hour interval from days 1 to 5, days 8 to 12, and days 15 to 19) and intraperitoneal administration (PBS and 200 μg/individual of an anti-PD1 antibody were administered once a day on days 1, 4, 8, 11, 15, and 18) of each agent were started. Then, the major axis and minor axis of subcutaneous tumor were measured three times a week using calipers, and a mean and standard error of the mean of the calculated volumes in each group were plotted. The calculation expression was Volume (mm^3)=[Width^2 (mm^2)×Length (mm)]/2. The oral administration agent was dissolved in a solvent for oral administration of DMSO:PEG400:PBS=5:20:75. […]

[3] = tested on: subcutaneous CT-26WT syngeneic graft of large intestine cancer; assay: Drug efficacy test, combined use of compound 29 or 38 and anti-PD1 antibody, mice with subcutaneous CT-26WT syngeneic graft (Test Example 6); conditions: 40 mg/kg oral twice a day, combined with anti-PD1 antibody 200 μg/individual i.p.; Balb/c mice; FIG. 5
Protocol: Drug Efficacy Test on Combined Use of Compound 29 or 38 and Anti-PD1 Antibody Using Mice with Subcutaneous CT-26WT Syngeneic Graft of Large Intestine Cancer
5×10^5 cells of syngeneic large intestine cancer cell line CT26WT were subcutaneously transplanted to each of 6-week-old female Balb/c mice. The mice were divided into 6 groups each involving 6 individuals 10 days later when the average tumor size was 250 mm^3. The oral administration (solvent for oral administration and 40 mg/kg each of compounds 29 and 38 were administered twice a day at a 5-hour interval from days 1 to 5 and days 8 to 12) and intraperitoneal administration (PBS and 200 μg/individual of an anti-PD1 antibody were administered once a day on days 1 and 8) of each agent were started. Then, the major axis and minor axis of subcutaneous tumor were measured three times a week using calipers, and a mean and standard error of the mean of the calculated volumes in each group were plotted. The calculation expression was Volume (mm^3)=[[…]×Length (mm)]/2. Compound 29 or 38 was suspended in 0.5% methyl cellulose as a solvent for oral administration. […]

Cl.Cl.N=C(N)SCc1ccccc1CSC(=N)N [Compound 1, 1,2-phenylenebis(methylene) dicarbamimidothioate dihydrochloride]
tumor growth (ratio of tumor volume to start day) [1]: can suppress tumor growth
tumor growth (tumor volume) [2]: can suppress tumor growth

c1ccc(CSC2=NCN(CC3CCCCC3)CN2)c(CSC2=NCN(CC3CCCCC3)CN2)c1 [Compound 29, 1,2-bis(((5-(cyclohexylmethyl)-1,4,5,6-tetrahydro-1,3,5-triazin-2-yl)thio)methyl)benzene]
tumor growth (tumor volume) [3]: can suppress tumor growth
